Test results: ChEMBL document CHEMBL2086223 (Bioorg Med Chem Lett, 2012)
pEC50, pKi: −log10 of the molar value. Calls of active or inactive are those of the source. The calls are words filed in the database; no cut-off is given here.

How the values were obtained:
[1] = target: T1, 5-hydroxytryptamine receptor 4 (Homo sapiens, UniProt Q13639); assay: Agonist activity at human recombinant 5HT4c receptor expressed in HEK293 cells at 10-fold physiological level assessed as accumulation of cAMP relative to 5HT; format: functional, cell-based
T1 sequence (Q13639 whole entry): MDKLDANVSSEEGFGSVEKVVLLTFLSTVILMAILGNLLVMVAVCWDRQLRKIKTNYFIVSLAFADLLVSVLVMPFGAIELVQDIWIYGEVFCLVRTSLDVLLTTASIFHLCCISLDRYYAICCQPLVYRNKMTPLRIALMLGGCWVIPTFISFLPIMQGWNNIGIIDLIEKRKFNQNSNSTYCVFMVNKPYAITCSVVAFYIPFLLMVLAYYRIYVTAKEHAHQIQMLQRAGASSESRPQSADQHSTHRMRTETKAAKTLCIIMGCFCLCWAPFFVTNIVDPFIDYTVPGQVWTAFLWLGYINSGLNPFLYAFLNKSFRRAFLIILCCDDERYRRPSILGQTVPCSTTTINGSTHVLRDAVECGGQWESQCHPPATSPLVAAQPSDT

[2] = (§1) Half life in rat liver microsomes
Homo sapiens = organism: Homo sapiens; assay: Selectivity ratio of Ki for human 5HT3A receptor to Ki for human 5HT4c receptor
[3] = target: T1, 5-hydroxytryptamine receptor 4
[4] = Permeability across human Caco2 cells; conditions: Caco-2
[5] = target: T1, 5-hydroxytryptamine receptor 4; assay: biochemical
Description: Displacement of [3H]GR113808 from human recombinant 5HT4c receptor expressed in HEK293 cells

hERG (KCNH2) = hERG (KCNH2) (Homo sapiens, UniProt Q12809); assay: Inhibition of human ERG expressed in CHO cells at 3 uM; conditions: CHO cells expressing human ERG
Sequence of hERG (KCNH2) (Q12809 whole entry): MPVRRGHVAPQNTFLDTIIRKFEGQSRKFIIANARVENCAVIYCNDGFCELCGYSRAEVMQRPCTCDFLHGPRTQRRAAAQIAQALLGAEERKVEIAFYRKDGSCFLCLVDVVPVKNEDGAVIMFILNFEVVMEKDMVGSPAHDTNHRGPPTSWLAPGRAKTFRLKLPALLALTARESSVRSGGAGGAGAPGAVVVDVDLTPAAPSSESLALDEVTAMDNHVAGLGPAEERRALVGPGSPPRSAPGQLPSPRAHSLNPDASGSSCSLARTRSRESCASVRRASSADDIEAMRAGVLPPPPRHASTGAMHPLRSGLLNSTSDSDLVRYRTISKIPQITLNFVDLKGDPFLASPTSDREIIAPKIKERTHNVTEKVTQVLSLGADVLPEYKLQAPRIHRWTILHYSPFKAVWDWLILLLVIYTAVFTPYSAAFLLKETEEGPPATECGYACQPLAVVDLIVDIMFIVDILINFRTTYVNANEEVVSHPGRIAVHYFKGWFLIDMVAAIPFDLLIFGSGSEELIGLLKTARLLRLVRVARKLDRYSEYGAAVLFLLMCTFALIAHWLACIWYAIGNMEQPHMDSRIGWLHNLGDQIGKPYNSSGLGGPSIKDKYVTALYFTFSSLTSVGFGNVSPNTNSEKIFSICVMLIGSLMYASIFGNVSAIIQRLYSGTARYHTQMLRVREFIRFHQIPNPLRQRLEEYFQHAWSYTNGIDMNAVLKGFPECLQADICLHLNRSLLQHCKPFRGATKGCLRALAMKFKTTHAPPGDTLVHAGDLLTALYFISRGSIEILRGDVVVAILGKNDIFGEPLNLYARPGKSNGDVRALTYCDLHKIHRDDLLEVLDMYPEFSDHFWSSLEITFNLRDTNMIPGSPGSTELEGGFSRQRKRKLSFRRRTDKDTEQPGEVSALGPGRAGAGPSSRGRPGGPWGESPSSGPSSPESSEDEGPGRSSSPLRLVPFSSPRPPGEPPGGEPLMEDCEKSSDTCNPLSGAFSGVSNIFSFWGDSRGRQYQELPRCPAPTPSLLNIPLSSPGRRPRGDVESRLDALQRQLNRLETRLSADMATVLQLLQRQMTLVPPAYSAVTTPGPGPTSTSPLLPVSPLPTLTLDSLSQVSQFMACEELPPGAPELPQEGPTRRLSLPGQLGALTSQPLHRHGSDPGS

Rattus norvegicus = assay: Induction of 5HT4-receptor mediated esophagal relaxation in iv dosed Sprague-Dawley rat; format: functional
[6] = target: 5-hydroxytryptamine receptor 6 (Homo sapiens) (UniProt P50406); assay: Inhibition of 5HT6 receptor at 10 uM
Sequence of 5-hydroxytryptamine receptor 6 (Homo sapiens) (P50406 whole entry): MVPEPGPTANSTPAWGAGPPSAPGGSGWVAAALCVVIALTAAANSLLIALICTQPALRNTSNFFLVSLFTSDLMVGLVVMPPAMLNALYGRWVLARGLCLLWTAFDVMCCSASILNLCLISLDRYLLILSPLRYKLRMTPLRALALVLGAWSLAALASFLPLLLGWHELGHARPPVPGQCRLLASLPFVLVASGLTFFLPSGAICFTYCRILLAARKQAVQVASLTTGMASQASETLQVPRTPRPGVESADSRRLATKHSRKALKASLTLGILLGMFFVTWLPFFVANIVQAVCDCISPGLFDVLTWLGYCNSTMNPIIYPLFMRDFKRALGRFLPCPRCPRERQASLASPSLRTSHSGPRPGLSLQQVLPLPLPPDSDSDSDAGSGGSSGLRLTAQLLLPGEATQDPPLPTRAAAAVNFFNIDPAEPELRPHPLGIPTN

[7] = target: T2, 5-hydroxytryptamine receptor 7 (Homo sapiens, UniProt P34969); assay: Binding affinity to 5HT7 receptor
T2 sequence (P34969 whole entry): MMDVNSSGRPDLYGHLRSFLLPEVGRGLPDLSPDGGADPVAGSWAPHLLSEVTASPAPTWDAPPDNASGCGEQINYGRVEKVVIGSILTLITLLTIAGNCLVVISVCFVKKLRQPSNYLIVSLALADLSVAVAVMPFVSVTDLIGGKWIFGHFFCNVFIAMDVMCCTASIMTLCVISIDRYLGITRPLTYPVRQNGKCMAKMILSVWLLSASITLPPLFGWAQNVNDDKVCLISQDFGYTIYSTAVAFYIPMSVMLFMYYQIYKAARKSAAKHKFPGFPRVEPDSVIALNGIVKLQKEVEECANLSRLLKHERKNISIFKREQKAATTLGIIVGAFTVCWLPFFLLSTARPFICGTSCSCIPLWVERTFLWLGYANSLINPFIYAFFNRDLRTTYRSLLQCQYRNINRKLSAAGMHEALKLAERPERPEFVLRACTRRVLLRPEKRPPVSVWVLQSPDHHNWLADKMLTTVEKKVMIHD

in vivo [8] = conditions: Sprague-Dawley, rat, po, 5 mg/kg
[9] = target: 5-hydroxytryptamine receptor 2A (Homo sapiens) (UniProt P28223); assay: Inhibition of 5HT2A receptor at 10 uM
Sequence of 5-hydroxytryptamine receptor 2A (Homo sapiens) (P28223 whole entry): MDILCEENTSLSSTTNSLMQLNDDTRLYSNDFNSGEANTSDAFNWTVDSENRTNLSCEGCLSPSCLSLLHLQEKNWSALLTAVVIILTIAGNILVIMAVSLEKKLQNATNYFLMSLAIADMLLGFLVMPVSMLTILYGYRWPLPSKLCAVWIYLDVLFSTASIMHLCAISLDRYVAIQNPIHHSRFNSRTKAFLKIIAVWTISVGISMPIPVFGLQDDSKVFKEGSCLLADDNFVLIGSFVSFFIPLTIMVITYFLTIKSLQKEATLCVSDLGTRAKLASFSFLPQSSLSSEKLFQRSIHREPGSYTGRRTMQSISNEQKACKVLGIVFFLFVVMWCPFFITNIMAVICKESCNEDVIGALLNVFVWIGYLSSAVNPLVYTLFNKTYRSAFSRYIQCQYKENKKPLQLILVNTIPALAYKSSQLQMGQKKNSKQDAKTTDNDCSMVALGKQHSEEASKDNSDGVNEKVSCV

Cavia porcellus [10] = assay: Prokinetic activity in guinea pig colon assessed as decrease in carmine red dye transit time at 0.3 mg/kg, sc relative to vehicle-treated control; format: functional, organism-based; parameters: dose 0.3 mg/kg
[11] = target: 5-hydroxytryptamine receptor 1B (Homo sapiens) (UniProt P28222); assay: Inhibition of 5HT1B receptor at 10 uM
Sequence of 5-hydroxytryptamine receptor 1B (Homo sapiens) (P28222 whole entry): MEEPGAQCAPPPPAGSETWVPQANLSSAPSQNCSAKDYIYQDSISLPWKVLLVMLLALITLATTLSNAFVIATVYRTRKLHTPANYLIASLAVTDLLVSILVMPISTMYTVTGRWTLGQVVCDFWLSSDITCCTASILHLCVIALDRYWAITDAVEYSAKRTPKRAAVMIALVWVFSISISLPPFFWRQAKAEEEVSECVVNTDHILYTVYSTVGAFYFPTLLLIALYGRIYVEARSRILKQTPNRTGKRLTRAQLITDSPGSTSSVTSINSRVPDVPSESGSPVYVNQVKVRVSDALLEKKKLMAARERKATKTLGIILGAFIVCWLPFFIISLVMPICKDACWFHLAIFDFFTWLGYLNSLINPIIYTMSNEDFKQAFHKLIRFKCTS

[12] = Half life in Sprague-Dawley rat at 5 mg/kg, po; format: ADME, organism-based; parameters: dose 5 mg/kg, route oral; conditions: in vivo
[13] = target: 5-hydroxytryptamine receptor 2B (Homo sapiens) (UniProt P41595); assay: Inhibition of 5HT2B receptor at 10 uM
Sequence of 5-hydroxytryptamine receptor 2B (Homo sapiens) (P41595 whole entry): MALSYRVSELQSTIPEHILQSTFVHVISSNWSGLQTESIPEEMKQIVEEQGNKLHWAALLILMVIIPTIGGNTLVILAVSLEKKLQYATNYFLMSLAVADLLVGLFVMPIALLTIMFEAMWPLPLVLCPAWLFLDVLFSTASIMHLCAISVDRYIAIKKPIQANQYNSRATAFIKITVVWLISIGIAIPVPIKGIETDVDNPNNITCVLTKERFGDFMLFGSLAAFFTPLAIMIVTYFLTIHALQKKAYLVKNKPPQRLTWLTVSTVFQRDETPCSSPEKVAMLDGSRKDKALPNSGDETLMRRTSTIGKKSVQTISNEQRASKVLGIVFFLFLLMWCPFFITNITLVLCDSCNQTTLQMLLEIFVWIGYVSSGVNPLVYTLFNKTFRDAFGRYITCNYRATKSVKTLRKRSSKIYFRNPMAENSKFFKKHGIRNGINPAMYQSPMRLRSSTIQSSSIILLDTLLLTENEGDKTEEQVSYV

[14] = target: 5-hydroxytryptamine receptor 1D (Homo sapiens) (UniProt P28221); assay: Inhibition of 5HT1D receptor at 10 uM
Sequence of 5-hydroxytryptamine receptor 1D (Homo sapiens) (P28221 whole entry): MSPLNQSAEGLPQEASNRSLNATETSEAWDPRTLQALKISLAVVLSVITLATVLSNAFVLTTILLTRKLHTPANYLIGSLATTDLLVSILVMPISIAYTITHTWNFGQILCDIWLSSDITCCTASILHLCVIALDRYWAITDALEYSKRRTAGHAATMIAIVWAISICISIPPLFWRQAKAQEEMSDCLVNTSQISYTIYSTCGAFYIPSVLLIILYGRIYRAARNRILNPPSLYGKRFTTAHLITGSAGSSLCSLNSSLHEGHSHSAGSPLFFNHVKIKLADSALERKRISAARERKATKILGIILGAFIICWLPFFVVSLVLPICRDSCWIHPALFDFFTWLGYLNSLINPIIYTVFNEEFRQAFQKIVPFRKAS

[15] = target: T2, 5-hydroxytryptamine receptor 7; assay: Inhibition of 5HT7 receptor at 10 uM
[16] = target: T3, 5-hydroxytryptamine receptor 1A (Homo sapiens) (UniProt P08908); assay: Inhibition of 5HT1A receptor at 10 uM
T3 sequence (whole entry): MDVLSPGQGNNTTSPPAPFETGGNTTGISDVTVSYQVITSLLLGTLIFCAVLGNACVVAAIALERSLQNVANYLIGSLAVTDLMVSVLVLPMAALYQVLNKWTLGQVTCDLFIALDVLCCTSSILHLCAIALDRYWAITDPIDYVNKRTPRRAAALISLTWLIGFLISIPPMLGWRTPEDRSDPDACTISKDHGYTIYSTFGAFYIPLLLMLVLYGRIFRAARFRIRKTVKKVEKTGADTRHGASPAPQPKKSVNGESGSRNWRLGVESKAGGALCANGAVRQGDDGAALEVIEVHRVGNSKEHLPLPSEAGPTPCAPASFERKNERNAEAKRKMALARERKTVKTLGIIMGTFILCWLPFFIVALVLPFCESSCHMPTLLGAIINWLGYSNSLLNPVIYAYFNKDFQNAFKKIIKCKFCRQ

Cavia porcellus [17] = assay: Prokinetic activity in sc dosed guinea pig colon assessed as increase in distance traveled by carmine red dye after 60 mins relative to vehicle-treated control; format: functional, organism-based
[18] = Elimination half life in healthy human administered QD; format: ADME, organism-based; conditions: in vivo, read-out: beta t1/2 (converted)
[19] = target: 5-hydroxytryptamine receptor 5A (Homo sapiens) (UniProt P47898); assay: Inhibition of 5HT5A receptor at 10 uM
Sequence of 5-hydroxytryptamine receptor 5A (Homo sapiens) (P47898 whole entry): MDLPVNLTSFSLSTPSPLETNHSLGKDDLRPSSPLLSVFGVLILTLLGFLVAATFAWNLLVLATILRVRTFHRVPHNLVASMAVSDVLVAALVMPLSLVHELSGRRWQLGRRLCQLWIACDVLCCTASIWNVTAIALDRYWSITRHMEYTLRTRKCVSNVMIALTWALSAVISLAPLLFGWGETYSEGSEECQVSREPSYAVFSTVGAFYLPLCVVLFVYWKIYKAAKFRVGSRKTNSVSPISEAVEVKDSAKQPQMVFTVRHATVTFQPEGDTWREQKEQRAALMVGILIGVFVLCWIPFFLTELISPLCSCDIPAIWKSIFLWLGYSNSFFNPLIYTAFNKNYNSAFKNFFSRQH

in vivo [20] = conditions: Sprague-Dawley, rat, po, 5 mg/kg; remark: listed apart in the source
[21] = target: T4, 5-hydroxytryptamine receptor 3A (Homo sapiens) (UniProt P46098); assay: Inhibition of 5HT3A receptor at 10 uM
T4 sequence (whole entry): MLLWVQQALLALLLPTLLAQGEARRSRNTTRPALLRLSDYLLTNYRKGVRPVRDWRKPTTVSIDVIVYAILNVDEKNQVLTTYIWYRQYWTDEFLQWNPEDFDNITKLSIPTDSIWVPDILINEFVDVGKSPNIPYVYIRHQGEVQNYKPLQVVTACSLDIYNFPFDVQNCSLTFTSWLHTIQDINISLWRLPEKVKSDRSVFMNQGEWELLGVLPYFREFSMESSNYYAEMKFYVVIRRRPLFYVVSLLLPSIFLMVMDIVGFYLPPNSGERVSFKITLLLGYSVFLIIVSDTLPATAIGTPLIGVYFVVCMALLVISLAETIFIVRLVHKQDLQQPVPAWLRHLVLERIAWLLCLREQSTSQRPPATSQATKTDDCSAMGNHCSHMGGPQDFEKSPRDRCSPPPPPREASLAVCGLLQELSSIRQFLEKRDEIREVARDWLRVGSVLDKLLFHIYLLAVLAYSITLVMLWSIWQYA

[22] = target: T5, 5-hydroxytryptamine receptor 2C (Homo sapiens) (UniProt P28335); assay: Inhibition of 5HT2C receptor at 10 uM
T5 sequence (whole entry): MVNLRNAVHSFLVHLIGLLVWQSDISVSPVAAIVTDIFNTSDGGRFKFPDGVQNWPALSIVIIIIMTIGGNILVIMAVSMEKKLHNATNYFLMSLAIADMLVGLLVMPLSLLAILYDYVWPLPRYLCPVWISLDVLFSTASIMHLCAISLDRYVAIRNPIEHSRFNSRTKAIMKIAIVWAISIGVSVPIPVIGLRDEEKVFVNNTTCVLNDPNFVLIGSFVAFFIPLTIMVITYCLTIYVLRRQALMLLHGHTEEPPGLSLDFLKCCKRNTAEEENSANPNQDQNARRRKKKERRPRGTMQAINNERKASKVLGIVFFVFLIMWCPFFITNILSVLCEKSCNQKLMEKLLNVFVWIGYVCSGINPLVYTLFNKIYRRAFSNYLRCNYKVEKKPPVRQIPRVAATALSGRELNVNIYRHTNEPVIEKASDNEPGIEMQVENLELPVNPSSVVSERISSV

[23] = target: 5-hydroxytryptamine receptor 4 (Cavia porcellus, UniProt O70528); assay: Agonist activity at 5HT4 receptor in guinea pig colonic longitudinal muscle/myenteric plexus assessed as contraction
Sequence of 5-hydroxytryptamine receptor 4 (Cavia porcellus, UniProt O70528) (O70528 whole entry): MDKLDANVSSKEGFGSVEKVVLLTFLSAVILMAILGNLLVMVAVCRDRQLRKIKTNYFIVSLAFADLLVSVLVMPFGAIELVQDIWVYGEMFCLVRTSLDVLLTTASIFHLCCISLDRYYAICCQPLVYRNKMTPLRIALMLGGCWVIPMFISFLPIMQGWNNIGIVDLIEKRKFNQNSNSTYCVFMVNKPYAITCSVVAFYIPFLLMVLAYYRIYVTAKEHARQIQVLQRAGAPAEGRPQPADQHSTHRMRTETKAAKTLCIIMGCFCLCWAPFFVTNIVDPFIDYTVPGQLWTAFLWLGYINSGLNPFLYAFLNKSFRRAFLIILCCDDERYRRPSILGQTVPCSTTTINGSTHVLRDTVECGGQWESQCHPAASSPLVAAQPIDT

Liver microsomes = assay: as §1; conditions: microsomes

Structure (SMILES)	Intrinsic activity [1]	Ratio Ki (Homo sapiens)	pEC50 [3]	Papp [4]	pKi [5]	half-life ([2]; liver microsomes)	also measured
CC(C)n1c(=O)c(C(=O)N[C@H]2C[C@H]3CC[C@@H](C2)N3C[C@@H](O)CN2CCN(S(C)(=O)=O)CC2)cc2ccccc21	114%	7400					half-life ([2]; microsomes): > 1.5 h
CC(C)n1c(=O)c(C(=O)N[C@H]2C[C@H]3CC[C@@H](C2)N3CC(O)CN(C)C(N)=O)cc2ccccc21 (mixture of isomers)	95%	1800	7.70	1 ×10⁻⁶ cm/s	7.30		half-life ([2]; microsomes): > 1.5 h
CC(C)n1c(=O)c(C(=O)N[C@H]2C[C@H]3CC[C@@H](C2)N3CC(O)CN(C)S(C)(=O)=O)cc2ccccc21 (mixture of isomers)	96%					> 1.5 h	
CC(C)n1c(=O)c(C(=O)N[C@H]2C[C@H]3CC[C@@H](C2)N3CC(O)CNC(N)=O)cc2ccccc21 (mixture of isomers)	82%	3300	8.30		7.80	> 1.5 h	
CC(=O)NCC(O)CN1[C@@H]2CC[C@H]1C[C@@H](NC(=O)c1cc3ccccc3n(C(C)C)c1=O)C2 (mixture of isomers)	96%	2200	8.20	6 ×10⁻⁶ cm/s	7.50	> 1.5 h	
CNC(=O)NCC(O)CN1[C@@H]2CC[C@H]1C[C@@H](NC(=O)c1cc3ccccc3n(C(C)C)c1=O)C2 (mixture of isomers)	82%	2400	7.90		7.60	> 1.5 h	
CC(C)n1c(=O)c(C(=O)N[C@H]2C[C@H]3CC[C@@H](C2)N3CC(O)CNS(C)(=O)=O)cc2ccccc21 (mixture of isomers)	107%	1200	8.10		7.70		inhibition at 3 µM (hERG (KCNH2)): 10%
COC(=O)NCC(O)CN1[C@@H]2CC[C@H]1C[C@@H](NC(=O)c1cc3ccccc3n(C(C)C)c1=O)C2 (mixture of isomers)		1600		35 ×10⁻⁶ cm/s	7.30		half-life ([2]; microsomes): > 1.5 h; inhibition at 3 µM (hERG (KCNH2)): 74%
CC(C)n1c(=O)c(C(=O)N[C@H]2C[C@H]3CC[C@@H](C2)N3C[C@H](O)CN(C)S(C)(=O)=O)cc2ccccc21	97%					> 1.5 h	
COC(=O)N(C)CC(O)CN1[C@@H]2CC[C@H]1C[C@@H](NC(=O)c1cc3ccccc3n(C(C)C)c1=O)C2 (mixture of isomers)	84%	710	8.00	35 ×10⁻⁶ cm/s	7.40	> 1.5 h	inhibition at 3 µM (hERG (KCNH2)): 40%
CC(=O)N1CCN(CCN2[C@@H]3CC[C@H]2C[C@@H](NC(=O)c2nn(C(C)C)c4ccccc24)C3)CC1		980				> 1.5 h	
CCCCCNC(=N)N/N=C/c1c[nH]c2ccc(OC)cc12 [TEGASEROD]	92%	580	8.60			> 1.5 h	ED50 (Rattus norvegicus): 0.011 mg/kg
CC(C)n1c(=O)c(C(=O)N[C@H]2C[C@H]3CC[C@@H](C2)N3C[C@@H](O)CN(C)S(C)(=O)=O)cc2ccccc21	95%					> 1.5 h	inhibition [6]: < 50%; pKi [7]: > 7.00; Cmax (in vivo [8]): 160 ng/mL; inhibition [9]: < 50%; Activity (Cavia porcellus [10]): Active; inhibition [11]: < 50%; half-life [12]: 1.9 h; inhibition [13]: < 50%; inhibition [14]: < 50%; inhibition [15]: < 50%; inhibition [16]: < 50%; Activity (Cavia porcellus [17]): Active; half-life [18]: 12 h; inhibition [19]: < 50%; AUC(0-t) (in vivo [20]): 460 ng·h/mL; Activity (Rattus norvegicus): Dose-dependent effect; ED50 (Rattus norvegicus): 0.025 mg/kg; inhibition [21]: < 50%; inhibition [22]: < 50%; pEC50 [23]: 7.90
CNC(=O)N(C)CC(O)CN1[C@@H]2CC[C@H]1C[C@@H](NC(=O)c1cc3ccccc3n(C(C)C)c1=O)C2 (mixture of isomers)	95%	870	7.50		7.00		
CC(=O)N(C)CC(O)CN1[C@@H]2CC[C@H]1C[C@@H](NC(=O)c1cc3ccccc3n(C(C)C)c1=O)C2 (mixture of isomers)	95%	1500	7.90	16 ×10⁻⁶ cm/s	7.40	> 1.5 h	inhibition at 3 µM (hERG (KCNH2)): 11%
CC(C)n1c(=O)c(C(=O)N[C@H]2C[C@H]3CC[C@@H](C2)N3CC(O)CN(C)C(=O)N(C)C)cc2ccccc21 (mixture of isomers)	87%	260	7.70	33 ×10⁻⁶ cm/s	7.30	> 1.5 h	inhibition at 3 µM (hERG (KCNH2)): 64%
COc1cc(N)c(Cl)cc1C(=O)N[C@H]1CCN(CCCOc2ccc(F)cc2)C[C@H]1OC (relative stereo) [REL-CISAPRIDE]	71						t1/2 (Liver microsomes): 0.783 h
CC(C)n1c(=O)c(C(=O)N[C@H]2C[C@H]3CC[C@@H](C2)N3CC(O)CNC(=O)N(C)C)cc2ccccc21 (mixture of isomers)		860		3 ×10⁻⁶ cm/s	7.00	> 1.5 h	
